Results: article PMC5955586, “Transport of enniatin B and enniatin B1 across the blood-brain barrier and hints for neurotoxic effects in cerebral cells” (PLoS ONE, 2018)

Assays:
[1] = tested on: HBMEC; experiment: CCK-8 viability assay in HBMEC; format: cell-based, human; conditions: 0.1 μM to 10 μM, 48 h
Method: To test the viability and to define the working range for later transport studies ENN B/ENN B1 stock solutions in ACN were diluted to the respective concentrations with serum free culture medium (1% ACN). An astrocytoma cell line, CCF-STTG1 (ATCC, Manassas, USA), and HBMEC cell line (human brain microvascular endothelial cells, kindly provided by Prof. Dr. Karch, Institute of Hygiene, University of Muenster (WWU Muenster)) were cultivated in RPMI 1640 medium supplemented with 100 U/mL penicillin, 100 μg/mL streptomycin, 2 mM L-glutamine and 10% (v/v) fetal calf serum (FCS) (medium for HBMEC additionally supplemented with 1 mM Na-pyruvate) using standardized culture conditions (37°C, 5% CO2, saturated humidified atmosphere). Culture medium was changed every 2–3 d, and the cells were subcultivated after trypsination when they reached a microscopic confluence of approximately 80%. […]
Briefly, the cells were seeded in 96-well tissue culture plates in a density of 1 × 10^4 cells/well (CCF-STTG1) and 4 × 10^3 cells/well (HBMEC), respectively. […] WST-8 dye is reduced to a water-soluble formazan by cellular dehydrogenases of viable cells, which increases the absorbance at λ = 457 nm and was measured with an Infinite M200 PRO microplate reader with Tecan i-control software version 1.7.1.12 (Tecan, Crailsheim, Germany). […]

[2] = Transfer across PBCEC monolayer on Transwell filters (BBB model); format: in vitro ADME, porcine; conditions: pig; apical to basolateral, 1 μM apical application (passive transport); read-out: Permeability coefficient
Method: (§1) In accordance with the thawing and seeding procedure for PBCEC, described for the viability test, 500 μL PBCEC suspension (2.5 × 10^5 cells/well) in culture medium were seeded on rat tail collagen coated 12-well Transwell® microporous polycarbonate filter inserts (Corning, Wiesbaden, Germany; growth area 1.12 cm^2, pore size 0.4 μm) in the upper (apical) compartment of the filter system. The lower (basolateral) compartment was filled with 1500 μL complete medium. This two-compartment system was used as model system for the BBB with the apical compartment reflecting the “blood”-side and the basolateral compartment serving as the “brain”-side. After 48 h, the complete medium was replaced by serum free medium. Additionally, 550 nM hydrocortisone (Sigma-Aldrich, Steinheim, Germany) was supplemented to urge differentiation of cells. After another 48 h, experiments studying barrier integrity and permeability were performed.
(§2) Before starting each experiment, the TEER values and the electrical capacitance of all cell layers were measured via cellular impedance spectroscopy (cellZscope®, nanoAnalytics, Münster, Germany). […] TEER values relate to the constitution of the tight junctions limiting paracellular transfer of compounds. In addition to the TEER, electrical capacitances (CCl) were monitored for 48 h. Cellular phospholipid bilayers act like an electrical capacitor and also contribute to the cellular impedance. Changes of the CCl value give information about the integrity of the cell monolayer. In this experiment, a parallel set up was applied. For each treatment, one triplicate of filters was monitored via cellular impedance spectroscopy over the course of 48 h using a cellZscope® device–here, the basolateral compartment was prepared with 1650 μL serum free medium and the volume in the apical compartment was filled to 760 μL (ratio 1:2.17). Another triplicate for the same incubation conditions was kept in Transwell® filter cell culture multiple well plates (12 well format) over the course of 48 h. In the multiple well plates the ratio between the apical and the basolateral compartment was 1:3, therefore the starting volume in the apical compartment is 500 μL and 1500 μL in the basolateral compartment. Here, samples for quantitation of transfer of enniatins across the barrier were drawn after 1, 2.5, 6.5, 18, 24, 28, 42 and 48 hours in this given ratio i.e. 30 μL apical and 90 μL basolateral. After 48 h, the final TEER values of the filters from the multiple well plate were measured to ensure the stability of the cell layer throughout the experiment. To double check the integrity of the barrier, lucifer yellow (LY, 50 μM), as a paracellular transfer marker, was applied. The amount of LY found in the basolateral compartment after 1 h was measured at λex = 430 nm and λ em = 540 nm.
(§3) After the completion of the experiment, the polycarbonate filter membranes were extracted. The filters were cut out and extracted with ACN/H2O (8+2, v/v) via ultrasonication for 1 h. The extract was evaporated (vacuum concentrator BA-VC-200 H, Bachofer GmbH + Co KG, Reutlingen, Germany) and reconstituted in 200 μL of ACN/H2O (8+2, v/v). The obtained samples and filter extracts were analyzed and quantitated with high performance liquid chromatography-tandem mass spectrometry (HPLC-MS/MS).
(§4) The quantitation of ENN B and ENN B1 by HPLC-MS/MS was carried out using an 1100 series (Agilent Technologies, Santa Clara, USA) high performance liquid chromatography (HPLC) system and API 3200 (AB SCIEX Germany GmbH, Darmstadt, Germany) mass spectrometer. Both devices were operated with Analyst Version 1.6.2 software (AB SCIEX Germany GmbH, Darmstadt, Germany). A Synergi 4 μm Fusion-RP 80 Å 50 × 2.0 mm (Phenomenex) equipped with a Synergy 4 μm Fusion-RP 4 × 2.0 mm (Phenomenex) precolumn was used and maintained at 40°C. A binary gradient consisting of ACN (A) and water (B) (both containing 0.1% formic acid) was applied. […]

[3] = tested on: PBCEC monolayer; experiment: as above; format: in vitro ADME, porcine; conditions: for active transport: 200 nM equimolar on both sides; for amount of apically applied compound found in basolateral compartment: after 6.5 h; for amount in filter membrane with attached PBCEC relative to applied amount: extraction after 48 h
Method: as §1, §2, §3, §4

[4] = tested on: Caco-2; conditions: cited from earlier work; for absorption: Caco-2, 4 h exposure; for duodenal bioavailability in vitro: Caco-2 model, 48 h
[5] = design: method as in PMID 27349679; conditions: mice; cited from earlier work
[6] = design: method as in PMID 21622627; conditions: liver microsomes human, dog and rat; cited from earlier work

| SMILES | effect on viability compared to solvent control [1] | Papp A→B at 1 μM [2] [×10⁻⁶ cm/s] | active transport [3] | amount transferred to basolateral compartment ([3]; 1 μM (0.5 nmol) apical, 6.5 h to 48 h) | amount of apically applied compound found in basolateral compartment ([3]; 1 μM (0.5 nmol) apical) [%] | amount in filter membrane with attached PBCEC relative to applied amount [3] | absorption [4] [%] | duodenal bioavailability in vitro [4] [%] | brain tissue distribution in the parenchyma [5] [%] | remaining in the capillaries [5] [%] | plateau of amount in basolateral compartment ([3]; 1 μM (0.5 nmol) apical) [%] | metabolites formed [6] |
| --- | --- | --- | --- | --- | --- | --- | --- | --- | --- | --- | --- | --- |
| CC[C@H](C)[C@H]1C(=O)O[C@H](C(C)C)C(=O)N(C)[C@@H](C(C)C)C(=O)O[C@H](C(C)C)C(=O)N(C)[C@@H](C(C)C)C(=O)O[C@H](C(C)C)C(=O)N1C [ENN B1, enniatin B1] | no effect on viability | 14.6 | minor enrichment in the apical compartment | up to 55% | 44 | 2.7% | > 65 | > 50 | 95 | 5 |  |  |
| CC(C)[C@H]1C(=O)O[C@H](C(C)C)C(=O)N(C)[C@@H](C(C)C)C(=O)O[C@H](C(C)C)C(=O)N(C)[C@@H](C(C)C)C(=O)O[C@H](C(C)C)C(=O)N1C [ENN B, enniatin B] | no effect on viability | 14.9 | minor enrichment in the apical compartment |  | 53 | below 1% | > 65 | > 50 | 95 | 5 | 70 ± 4 | several phase I metabolites |
